Drawing on PubChem BioAssay (NCI), this text covers TGI and GI50 for twelve molecules.

Among the test systems are HOP-18 NSCLC; XF 498 CNS; KM20L2 colon; M19-MEL melanoma; RXF-631 renal; LXFL 529 NSCLC; DMS 273 small cell lung; T-47D breast; MDA-N; P388/ADR leukemia; P388 leukemia.
Common to all, as to assay: NCI tumour cell line growth inhibition, 48 h

Where “and” joins values, the source holds several entries; their conditions need not be identical. Identical values can stand only once.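 Where inhibition never reached the appropriate level, the endpoint shown equals the highest concentration tested. Otherwise, values were interpolated linearly from a five-concentration, 48-hour dose response in 96-well plates. GI50 is the concentration that inhibits growth by half. TGI: concentration producing complete growth inhibition.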

For the molecule `COc1ccccc1/C=C(\NC(=O)c1ccccc1)c1nc2ccccc2[nH]1`, the TGI was over 100 µM with HOP-18 NSCLC; over 100 µM in the test on XF 498 CNS; over 100 µM in the test with KM20L2 colon; over 100 µM in the test with M19-MEL melanoma; over 100 µM in the test with RXF-631 renal; 96.9 µM in the test on LXFL 529 NSCLC.

Turning to `Cn1cnnc1Sc1c([N+](=O)[O-])nc(-c2ccc([N+](=O)[O-])cc2)n1C`, the TGI is 31.8 µM with DMS 273 small cell lung; 31.3 µM in the test with HOP-18 NSCLC; 22.5 µM in the test with XF 498 CNS; 32.3 µM with M19-MEL melanoma; 32.8 µM in the test with RXF-631 renal; 26.8 µM in the test on LXFL 529 NSCLC.

Turning to `COC(OC)c1cccnc1C`, the TGI in the test with DMS 273 small cell lung, with HOP-18 NSCLC, with XF 498 CNS, with KM20L2 colon, in the test on M19-MEL melanoma and in the test with RXF-631 renal was over 100 µM each time. In the test on LXFL 529 NSCLC, this molecule displayed a TGI of over 100 µM.

With `COc1c2c(c(O)c3c4c(c(C)cc13)C1OC3(C(OC)OC5CC(C)(O)C(OC6CC(C)(O)C(O)C(C)O6)C(C)O5)OC1C(OC)(O4)C31CO1)C(=O)C(O)CC2OC1CC(C)(O)C(OC(C)=O)C(C)O1` (stereo unspecified), the TGI is under 0.01 µM in the test with DMS 273 small cell lung; under 0.01 µM with XF 498 CNS; under 0.01 µM with M19-MEL melanoma; 4.48 µM in the test on RXF-631 renal; 0.0889 µM in the test on LXFL 529 NSCLC.

Consider `Cc1c(-c2ccc(-c3ccccc3F)cc2)nc2ccc(F)cc2c1C(=O)O`, for which the GI50 was 10.2 µM and 79.5 µM with T-47D breast; 0.979 µM and 0.762 µM with MDA-N; 0.5 µM in the test on DMS 273 small cell lung; 57 µM with HOP-18 NSCLC; 106 µM in the test with XF 498 CNS; 0.5 µM in the test on P388/ADR leukemia. Also, the GI50 is 0.5 µM in the test on P388 leukemia and 1.12 µM in the test on KM20L2 colon. For the same molecule, the TGI is 259 µM and 792 µM in the test with T-47D breast; 29.3 µM and 89.9 µM with DMS 273 small cell lung; 192 µM and 182 µM in the test with HOP-18 NSCLC; 164 µM and 230 µM in the test with XF 498 CNS; 60 µM and 125 µM in the test with P388/ADR leukemia; 89.8 µM and 106 µM with P388 leukemia. In addition, the TGI with KM20L2 colon was 170 µM and 171 µM; in the test on M19-MEL melanoma, 153 µM.

As for `C[C@]12CC[C@H](OC(=O)Nc3ccccc3)CC1=CC[C@@H]1C2CC[C@]2(C)/C(=N/OC(=O)Nc3ccccc3)CCC12` (stereo partly specified), the TGI is over 100 µM in the test with DMS 273 small cell lung; 37.9 µM in the test on HOP-18 NSCLC; 3.19 µM in the test on XF 498 CNS; over 100 µM in the test on KM20L2 colon; over 100 µM in the test with M19-MEL melanoma; over 100 µM in the test on RXF-631 renal. Also, the TGI in the test with LXFL 529 NSCLC amounted to 2.52 µM.

On to `O=C(Nc1ccccc1)N1C(c2ccccc2)=N[C@@H](c2ccccc2)[C@@H]1c1ccccc1`, for which the TGI in the test on HOP-18 NSCLC was 50.7 µM; in the test with KM20L2 colon, 37.3 µM; in the test with M19-MEL melanoma, 38.7 µM; in the test on RXF-631 renal, 79 µM; with LXFL 529 NSCLC, 31.6 µM.

On to `CN(C)C(=S)/N=c1\ssc(=Nc2ccccc2)n1-c1ccccc1`, for which the TGI with DMS 273 small cell lung is 48.5 µM; in the test on HOP-18 NSCLC, over 100 µM; with M19-MEL melanoma, over 100 µM; in the test with RXF-631 renal, over 100 µM.

Regarding `c1ccc(N2CCN(CCN3CCc4c([nH]c5ccccc45)C3c3cccnc3)CC2)cc1` (stereo unspecified), the TGI in the test with DMS 273 small cell lung, with HOP-18 NSCLC, in the test on XF 498 CNS, in the test on KM20L2 colon, with M19-MEL melanoma and in the test with RXF-631 renal was over 100 µM each time. In addition, the TGI in the test with LXFL 529 NSCLC is over 100 µM.

Turning to `CNC(=O)NCCCCC(NC(C)=O)C(=O)NCc1ccccc1` (stereo unspecified), the TGI in the test on DMS 273 small cell lung, in the test on XF 498 CNS, in the test with KM20L2 colon, with M19-MEL melanoma, in the test on RXF-631 renal and in the test with LXFL 529 NSCLC was over 100 µM each time.

For the molecule `Nc1ccc(C(=O)N/C(=C\c2ccc3c(c2)OCO3)c2nc3ccccc3s2)cc1`, the TGI in the test with DMS 273 small cell lung turned out to be 34.2 µM; with XF 498 CNS, 25.5 µM; with KM20L2 colon it was 28.7 µM; in the test on M19-MEL melanoma, 32.6 µM; with RXF-631 renal it was 35.1 µM; with LXFL 529 NSCLC it was 22.4 µM.

On to `COc1ccc(OCC(=O)O)c2c1CCC(C)C2=O` (stereo unspecified), for which the TGI with DMS 273 small cell lung, in the test with HOP-18 NSCLC, with XF 498 CNS, in the test on KM20L2 colon, in the test on M19-MEL melanoma and with RXF-631 renal was over 100 µM in each case.
